Test results from patent US9353100B2, “Macrocyclic serine protease inhibitors, pharmaceutical compositions thereof, and their use for treating HCV infections” (Idenix Pharmaceuticals LLC, priority 2011, dated 2016).
Where two headings read alike, the source gives them in different places.

Experiments:
HCV NS3-NS4A protease 1a = target: T1, HCV NS3-NS4A protease 1a (Hepatitis C virus genotype 1a, UniProt P27958); assay: HCV protease assay (FRET peptide), genotype 1a; type: biochemical; settings: genotype 1a protease; 60 min at 30° C.; read-out: IC50 Against HS3/4A 1a
T1 construct: HCV NS3-NS4A protease, which was produced according to the method of Taremi et al; made in house
T1 sequence (P27958 1027-1208): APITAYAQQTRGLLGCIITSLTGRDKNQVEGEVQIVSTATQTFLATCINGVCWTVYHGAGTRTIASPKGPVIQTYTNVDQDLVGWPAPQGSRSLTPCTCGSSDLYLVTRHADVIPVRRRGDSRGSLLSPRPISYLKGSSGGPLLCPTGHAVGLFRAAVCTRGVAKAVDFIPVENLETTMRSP
T1 sequence (P27958 1658-1711): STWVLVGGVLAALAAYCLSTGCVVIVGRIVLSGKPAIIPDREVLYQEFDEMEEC
Method: (§1) General procedure: Measurement of the inhibitory effect of compounds on HCV protease activity was performed using the HiLyte Fluor™ TR/QXL™ 610 FRET peptide from AnaSpec, Inc. (San Jose, Calif.) under conditions developed in-house using 2-3 nM HCV NS3-NS4A protease, which was produced according to the method of Taremi et al. (Protein Science, 1998, 7, 2143-2149). The compounds were tested at a variety of concentrations in assay buffer containing a final DMSO concentration of 5%. Reactions were allowed to proceed for 60 min at 30° C. and fluorescence measurements were recorded with a PerkinElmer Victor^3 V 1420 Multilabel Counter. The IC50 values were determined from the percent inhibition versus concentration data using a sigmoidal non-linear regression analysis based on four parameters with XLfit 4.1 software.

HCV NS3-NS4A protease 1b = target: T2, HCV NS3-NS4A protease 1b (Hepatitis C virus genotype 1b, UniProt Q9WMX2); assay: HCV protease assay (FRET peptide), genotype 1b; type: biochemical
T2 construct: HCV NS3-NS4A protease, which was produced according to the method of Taremi et al; made in house
T2 sequence (Q9WMX2 1658-1711): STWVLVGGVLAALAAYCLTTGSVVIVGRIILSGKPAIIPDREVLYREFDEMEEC
T2 sequence (Q9WMX2 1027-1208): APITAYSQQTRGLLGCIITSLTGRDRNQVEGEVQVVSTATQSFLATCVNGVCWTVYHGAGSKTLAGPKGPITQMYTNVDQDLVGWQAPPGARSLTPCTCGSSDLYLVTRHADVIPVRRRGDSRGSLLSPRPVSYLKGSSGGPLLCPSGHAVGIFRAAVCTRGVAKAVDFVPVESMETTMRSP
Method: as §1

HCV NS3-NS4A protease 2a = target: T3, HCV NS3-NS4A protease 2a (Hepatitis C virus genotype 2a, UniProt Q99IB8); assay: HCV protease assay (FRET peptide), genotype 2a; type: biochemical; settings: genotype 2a protease; 60 min at 30° C.; read-out: IC50 Against HS3/4A 2a
T3 construct: HCV NS3-NS4A protease, which was produced according to the method of Taremi et al; made in house
T3 sequence (Q99IB8 1662-1715): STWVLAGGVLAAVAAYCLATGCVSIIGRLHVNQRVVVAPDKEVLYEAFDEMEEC
T3 sequence (Q99IB8 1031-1212): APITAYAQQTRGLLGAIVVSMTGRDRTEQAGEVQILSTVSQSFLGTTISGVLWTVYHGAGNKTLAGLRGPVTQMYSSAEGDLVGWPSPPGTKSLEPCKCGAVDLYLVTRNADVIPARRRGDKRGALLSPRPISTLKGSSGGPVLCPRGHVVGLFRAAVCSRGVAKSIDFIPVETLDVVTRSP
Method: as §1

HCV NS3-NS4A protease 3a = target: T4, HCV NS3-NS4A protease 3a (Hepatitis C virus genotype 3a, UniProt Q81258); assay: HCV protease assay (FRET peptide), genotype 3a; type: biochemical
T4 construct: HCV NS3-NS4A protease, which was produced according to the method of Taremi et al; made in house
T4 sequence (Q81258 1664-1717): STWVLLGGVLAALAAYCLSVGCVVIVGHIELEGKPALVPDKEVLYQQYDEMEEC
T4 sequence (Q81258 1033-1214): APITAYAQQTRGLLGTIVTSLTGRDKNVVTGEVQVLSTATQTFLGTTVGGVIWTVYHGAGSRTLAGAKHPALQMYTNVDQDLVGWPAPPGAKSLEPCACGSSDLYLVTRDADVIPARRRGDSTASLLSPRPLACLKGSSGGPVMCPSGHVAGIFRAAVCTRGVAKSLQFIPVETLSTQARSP
Method: as §1

HCV NS3-NS4A protease 4a = target: T5, HCV NS3-NS4A protease 4a (Hepatitis C virus genotype 4a, UniProt O39929); assay: HCV protease assay (FRET peptide), genotype 4a; type: biochemical; settings: genotype 4a protease; 60 min at 30° C.; read-out: IC50 Against HS3/4A 4a
T5 construct: HCV NS3-NS4A protease, which was produced according to the method of Taremi et al; made in house
T5 sequence (O39929 1658-1711): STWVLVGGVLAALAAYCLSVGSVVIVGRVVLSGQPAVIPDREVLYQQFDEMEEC
T5 sequence (O39929 1027-1208): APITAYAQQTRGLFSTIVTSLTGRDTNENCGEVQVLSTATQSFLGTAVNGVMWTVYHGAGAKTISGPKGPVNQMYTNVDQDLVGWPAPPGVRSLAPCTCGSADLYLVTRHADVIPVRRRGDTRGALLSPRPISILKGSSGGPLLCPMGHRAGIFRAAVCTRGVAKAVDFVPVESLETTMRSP
Method: as §1

HCV NS3-NS4A protease 5a = target: T6, HCV NS3-NS4A protease 5a (Hepatitis C virus genotype 5a, UniProt O39928); assay: HCV protease assay (FRET peptide), genotype 5a; type: biochemical; settings: genotype 5a protease; 60 min at 30° C.; read-out: IC50 Against HS3/4A 5a
T6 construct: HCV NS3-NS4A protease, which was produced according to the method of Taremi et al; made in house
T6 sequence (O39928 1659-1712): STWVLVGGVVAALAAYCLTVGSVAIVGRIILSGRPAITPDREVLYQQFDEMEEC
T6 sequence (O39928 1028-1209): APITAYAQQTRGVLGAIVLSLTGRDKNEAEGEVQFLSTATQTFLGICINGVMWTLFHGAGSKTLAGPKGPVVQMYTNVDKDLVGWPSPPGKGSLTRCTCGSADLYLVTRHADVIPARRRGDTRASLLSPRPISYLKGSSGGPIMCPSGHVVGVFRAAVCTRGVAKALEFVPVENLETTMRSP
Method: as §1

HCV NS3-NS4A protease 6a = target: T7, HCV NS3-NS4A protease 6a (Hepatitis C virus genotype 6a, UniProt O39927); assay: HCV protease assay (FRET peptide), genotype 6a; type: biochemical; settings: genotype 6a protease; 60 min at 30° C.; read-out: IC50 Against HS3/4A 6a
T7 construct: HCV NS3-NS4A protease, which was produced according to the method of Taremi et al; made in house
T7 sequence (O39927 1031-1212): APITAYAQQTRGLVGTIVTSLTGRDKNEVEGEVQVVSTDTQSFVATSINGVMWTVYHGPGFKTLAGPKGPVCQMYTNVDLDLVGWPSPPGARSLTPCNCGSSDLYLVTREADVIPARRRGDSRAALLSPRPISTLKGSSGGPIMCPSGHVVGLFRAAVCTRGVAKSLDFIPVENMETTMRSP
T7 sequence (O39927 1662-1715): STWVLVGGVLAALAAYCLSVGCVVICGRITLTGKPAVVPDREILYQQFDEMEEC
Method: as §1

[1] = test system: HCV genotype 1a H77 strain subgenomic luciferase replicon (H1a-luc) in Huh-7 cells; assay: HCV luciferase replicon assay, genotype 1a (H1a-luc); type: cell-based; settings: for FS (1a/1b): EC50 against genotype 1a HCV divided by EC50 against genotype 1b, replicon luciferase assay; for EC50: genotype 1a H77 replicon, Huh-7 (H1a-luc), 72 hours, read-out: EC50 Against Relpicon 1a
Method: (§2) General procedure: The HCV luciferase replicon assay measures the ability of a test compound to inhibit HCV replication in cell culture after 3 days of treatment in a human hepatoma cell line (Huh-7) bearing a HCV replicon containing a luciferase-neomycin phosphotransferase fusion gene. The inhibition of HCV replication was measured by quantification of luciferase protein expression. Briefly, Huh-7 cells containing either the HCV genotype 1a H77 strain or genotype 1b Con1 strain subgenomic luciferase replicon (H1a-luc or Zluc, respectively) were grown in DMEM containing glucose, L-glutamine and sodium pyruvate, 10% fetal bovine serum (FBS), 100 IU/mL penicillin, 100 μg/mL streptomycin, 2 mM GlutaMAX, non-essential amino acids and 0.25 (H1a-luc) or 0.5 (Zluc) mg/mL G418. GlutaMAX was obtained from Invitrogen, Corp.; all other media reagents were obtained from Mediatech, Inc. For dose-response testing, the cells were seeded in 96-well plates at 1×10^4 (H1a-luc) or 7.5×10^3 (Zluc) cells/well in a volume of 50 μL and incubated at 37° C./5% CO2. Three hours after plating, 50 μL of ten 5-fold serial dilutions of compound were added, and cell cultures were incubated at 37° C./5% CO2 for 72 hours. In all cases, Huh-7 cells lacking the HCV replicon served as negative control. To assess luciferase expression, the media/compound was removed from the plates and ONE-glo Luciferase assay reagent (Promega) was added to each well. The assay plates were shaken for 3 minutes at room temperature and luciferase activity for each well was measured with a 1 sec read time on the Victor^3V multilabel counter using a 700 nm cut-off filter (Perkin Elmer). EC50 values were calculated from dose response curves from the resulting best-fit equations determined by Microsoft Excel and XLfit 4.1 software.

[2] = test system: HCV genotype 1b Con1 strain subgenomic luciferase replicon (Zluc) in Huh-7 cells; assay: HCV luciferase replicon assay, genotype 1b (Zluc); type: cell-based; settings: genotype 1b Con1 replicon, Huh-7 (Zluc), 72 hours, read-out: EC50 Against Relpicon 1b
Method: as §2

[3] = Cytotoxicity evaluation, Cell Titer 96 AQueous One Solution; type: cell-based, human; settings: human; Zluc cells, cellular viability
Method: (§3) For cytotoxicity evaluation, Zluc cells were treated with compounds as described above and cellular viability was monitored using the Cell Titer 96 AQueous One Solution Cell Proliferation Assay (Promega). Plates were then read at 490 nm in a Victor^3V 1420 multilabel counter (Perkin Elmer) and CC50 concentrations were determined using Microsoft Excel and XLfit 4.1 software.

[4] = test system: genotype 1b HCV replicon in Zluc cells; assay: Genotype 1b HCV replicon luciferase assay with 10% FCS or 45% human serum; type: cell-based; settings: EC50 in presence of 45% HS divided by EC50 in presence of 10% FCS
Method: as §2
In Table 1, the values of FS with 45% HS were determined using the genotype 1b HCV replicon luciferase screening assay using Zluc cells, except that activity in the presence of 10% fetal calf serum (FCS) or 45% human serum (HS) was determined in parallel. The fold shift (FS) with 45% HS is the EC50 value in the presence of 45% HS divided by the EC50 value in the presence of 10% FCS. FS (1a/1b) is the EC50 value against genotype 1a HCV divided by the EC50 value against the genotype 1b in the replicon luciferase screening assay.

Zluc cells = assay: Cytotoxicity evaluation, Cell Titer 96 AQueous One Solution; type: cell-based, human; settings: cellular viability
Method: as §3

Row | Compound | IC50 (HCV NS3-NS4A protease 1a) [nM] | IC50 (HCV NS3-NS4A protease 1b) [nM] | IC50 (HCV NS3-NS4A protease 2a) [nM] | IC50 (HCV NS3-NS4A protease 3a) [nM] | IC50 (HCV NS3-NS4A protease 4a) [nM] | IC50 (HCV NS3-NS4A protease 5a) [nM] | IC50 (HCV NS3-NS4A protease 6a) [nM] | FS (1a/1b) [1] | EC50 ([1]; Hepatitis C virus) [nM] | EC50 ([2]; Hepatitis C virus) [nM] | CC50 [3] [nM] | FS with 45% HS [4] | IC50 (HCV NS3-NS4A protease 1b; genotype 1b protease, 60 min at 30° C., read-out: IC50 Against HS3/4A 1b) [nM] | EC50 [1] [nM] | EC50 [2] [nM] | CC50 (Zluc cells) [nM]
1 | Cc1csc(-c2cc(O[C@H]3CC[C@H]4C(=O)N(C)CCCC/C=C\[C@@H]5C[C@@]5(C(=O)NS(=O)(=O)C5(C)CC5)NC(=O)[C@@H]4C3)nc(-c3nc(C(F)(F)F)cs3)n2)n1 [Compound C101, (1R,4R,6R,15R,18S)-1-methyl-cyclopropanesulfonic acid {13-methyl-18-[6-(4-methyl-thiazol-2-yl)-2-(4-trifluoromethyl-thiazol-2-yl)-pyrimidin-4-yloxy]-2,14-dioxo-3,13-diaza-tricyclo[13.4.0.0]nonadec-7-ene-4-carbonyl}-amide] | < 10 | < 10 | < 10 | < 10 | < 10 | < 10 | < 10 | 7 | < 10 | < 10 | > 10000 | 16 |  |  |  | 
2 | (1R,4R,6R,15R,18S)-1-methyl-cyclopropanesulfonic acid [18-(2,5-diphenyl-thiazol-4-yloxy)-13-methyl-2,14-dioxo-3,13-diaza-tricyclo[13.4.0.0]nonadec-7-ene-4-carbonyl]-amide [Compound D103] |  |  |  |  |  |  |  | 113 |  |  |  |  | 10 to 100 | 1000 to 10000 | 10 to 100 | > 10000
